Laboratory results: PubChem BioAssay AID248 (DTP/NCI, 2004)
Values joined by “and” are separate entries in the source; they are usually repeats but may differ in a detail not shown here. Equal entries are not always repeated. Toxic doses and inconclusive results are not listed. Cut-off read from the data, not from the text of the source: active = T/C of 150% or more; inactive = T/C below 125%.

Tested on: L1210 leukemia ip in BDF1 mice, survival T/C
Assay: NCI In Vivo Anticancer Drug Screen. Data for tumor model L1210 Leukemia (intraperitoneal) in B6D2F1 (BDF1) mice
Conditions: endpoint: mean survival time, higher = longer survival
Method in brief: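 Antitumor effect is assessed in tumor-bearing animals. Survival in the compound arm is compared with a vehicle-dosed control arm and expressed as their quotient.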

[1] = dose: 100.0 mg/kg/injection, schedule: Q01DX009 (ip), vehicle: other
[2] = dose: 100.0 mg/kg/injection, schedule: Q04DX003 (ip), vehicle: other
[3] = dose: 200.0 mg/kg/injection, schedule: Q04DX003 (ip), vehicle: other
[4] = dose: 400.0 mg/kg/injection, schedule: Q04DX003 (ip), vehicle: other
[5] = dose: 100.0 mg/kg/injection, schedule: Q01DX001 (ip), vehicle: Klucel (hydroxypropylcellulose) (HPC)
[6] = dose: 200.0 mg/kg/injection, schedule: Q01DX001 (ip), vehicle: Klucel (hydroxypropylcellulose) (HPC)
[7] = dose: 100.0 mg/kg/injection, schedule: Q01DX009 (ip), vehicle: saline with Tween-80
[8] = dose: 200.0 mg/kg/injection, schedule: Q01DX009 (ip), vehicle: saline with Tween-80
[9] = dose: 100.0 mg/kg/injection, schedule: Q04DX003 (ip), vehicle: saline
[10] = dose: 200.0 mg/kg/injection, schedule: Q04DX003 (ip), vehicle: saline
[11] = dose: 400.0 mg/kg/injection, schedule: Q04DX003 (ip), vehicle: saline
[12] = dose: 100.0 mg/kg/injection, schedule: Q01DX001 (ip), vehicle: saline
[13] = dose: 200.0 mg/kg/injection, schedule: Q01DX001 (ip), vehicle: saline

Measured: T/C

O=[N+]([O-])c1ccc(N=C(Nc2ccc([N+](=O)[O-])cc2)c2ccccc2)cc1
inactive: [1] 92 % of control | [2] 96 % of control | dose: 200.0 mg/kg/injection, schedule: Q01DX009 (ip), vehicle: other 101 % of control | [3] 102 % of control | dose: 400.0 mg/kg/injection, schedule: Q01DX009 (ip), vehicle: other 97 % of control | [4] 91 % of control

O=C(OCCn1c(-c2ccccn2)nc2ccccc21)C(O)(c1ccccc1)c1ccccc1
inactive: [5] 102 % of control | [6] 93 % of control

ICc1ccnc2ccccc12
inactive: dose: 100.0 mg/kg/injection, schedule: Q01DX001 (ip), vehicle: other 100 % of control | dose: 200.0 mg/kg/injection, schedule: Q01DX001 (ip), vehicle: other 103 % of control | dose: 400.0 mg/kg/injection, schedule: Q01DX001 (ip), vehicle: other 100 % of control

CCC/C=C(/C=O)CC
inactive: dose: 100.0 mg/kg/injection, schedule: Q01DX001 (ip), vehicle: saline with Tween-80 100 % of control | dose: 200.0 mg/kg/injection, schedule: Q01DX001 (ip), vehicle: saline with Tween-80 96 % of control | dose: 400.0 mg/kg/injection, schedule: Q01DX001 (ip), vehicle: saline with Tween-80 96 % of control

O=S1(=O)OC(c2ccccc2)(c2ccccc2)c2ccccc21
inactive: dose: 100.0 mg/kg/injection, schedule: Q01DX001 (ip), vehicle: carboxymethylcellulose (CMC) 100 % of control | dose: 200.0 mg/kg/injection, schedule: Q01DX001 (ip), vehicle: carboxymethylcellulose (CMC) 100 % of control | dose: 400.0 mg/kg/injection, schedule: Q01DX001 (ip), vehicle: carboxymethylcellulose (CMC) 100 % of control

COc1cc(/C=N/NC(=O)c2cc(OC)c(OC)c(OC)c2)ccc1O
inactive: [7] 93 % of control | [8] 93 % of control | dose: 400.0 mg/kg/injection, schedule: Q01DX009 (ip), vehicle: saline with Tween-80 90 % of control

Nc1ccn(Cc2ccccc2)c(=O)n1
inactive: dose: 75.0 mg/kg/injection, schedule: Q01DX001 (ip), vehicle: saline with Tween-80 95 % of control | dose: 150.0 mg/kg/injection, schedule: Q01DX001 (ip), vehicle: saline with Tween-80 94 % of control | dose: 300.0 mg/kg/injection, schedule: Q01DX001 (ip), vehicle: saline with Tween-80 95 % of control

NC(=NCCCC(NCc1ccccc1)C(=O)O)N[N+](=O)[O-] (stereo not drawn)
inactive: dose: 75.0 mg/kg/injection, schedule: Q01DX009 (ip), vehicle: other 107 % of control | [9] 100 % of control | dose: 150.0 mg/kg/injection, schedule: Q01DX009 (ip), vehicle: other 111 % of control | [10] 102 % of control | dose: 300.0 mg/kg/injection, schedule: Q01DX009 (ip), vehicle: other 107 % of control | [11] 104 % of control | dose: 600.0 mg/kg/injection, schedule: Q01DX009 (ip), vehicle: other 105 % of control

CC[C@]12CN3CCc4c([nH]c5ccccc45)[C@@](C(=O)OC)(c4cc5c(cc4OC)N(C)[C@H]4[C@@](O)(C(=O)OC)[C@H](OC(C)=O)[C@]6(CC)C=CCN7CC[C@]54[C@@H]76)CC(C3)[C@H]1O2 (stereo partly drawn)
inactive: dose: 0.37 mg/kg/injection, schedule: Q01DX009 (ip), vehicle: saline 108 % of control | dose: 0.75 mg/kg/injection, schedule: Q01DX009 (ip), vehicle: Klucel (hydroxypropylcellulose) (HPC) 100 % of control | dose: 1.5 mg/kg/injection, schedule: Q01DX002 (ip), vehicle: saline 108 % of control | dose: 1.5 mg/kg/injection, schedule: Q01DX009 (ip), vehicle: Klucel (hydroxypropylcellulose) (HPC) 105 % of control | dose: 1.5 mg/kg/injection, schedule: Q01DX009 (ip), vehicle: saline 97 % of control and 108 % of control and 114 % of control | dose: 3.0 mg/kg/injection, schedule: Q01DX002 (ip), vehicle: saline 115 % of control | dose: 3.0 mg/kg/injection, schedule: Q01DX009 (ip), vehicle: Klucel (hydroxypropylcellulose) (HPC) 110 % of control | dose: 6.0 mg/kg/injection, schedule: Q01DX002 (ip), vehicle: saline 117 % of control | dose: 6.0 mg/kg/injection, schedule: Q01DX009 (ip), vehicle: Klucel (hydroxypropylcellulose) (HPC) 107 % of control | dose: 12.0 mg/kg/injection, schedule: Q01DX009 (ip), vehicle: Klucel (hydroxypropylcellulose) (HPC) 115 % of control | dose: 12.0 mg/kg/injection, schedule: Q01DX009 (ip), vehicle: saline 95 % of control | dose: 16.5 mg/kg/injection, schedule: Q04DX003 (ip), vehicle: saline with Tween-80 106 % of control | dose: 37.5 mg/kg/injection, schedule: Q04DX003 (ip), vehicle: saline 94 % of control

C/C=C/c1ccc(OCC)c(OC)c1
inactive: [9] 97 % of control | [10] 98 % of control

Nc1cncc([N+](=O)[O-])c1N
inactive: [9] 98 % of control | [10] 96 % of control | [11] 94 % of control

OCC1OC(n2ncc3ccccc32)C(O)C1O (stereo not drawn)
inactive: dose: 50.0 mg/kg/injection, schedule: Q01DX005 (ip), vehicle: other 109 % of control | dose: 100.0 mg/kg/injection, schedule: Q01DX005 (ip), vehicle: other 105 % of control | dose: 200.0 mg/kg/injection, schedule: Q01DX005 (ip), vehicle: other 98 % of control

CCCCCCCCCCCCC1C2CCCCC2C2CCCCC12 (stereo not drawn)
inactive: [12] 92 % of control | [13] 92 % of control | dose: 400.0 mg/kg/injection, schedule: Q01DX001 (ip), vehicle: saline 92 % of control

Clc1nc2nc3n(c2nc1Cl)CCC3(Br)Br
inactive: dose: 12.5 mg/kg/injection, schedule: Q01DX009 (ip), vehicle: other 112 % of control | dose: 25.0 mg/kg/injection, schedule: Q01DX009 (ip), vehicle: other 114 % of control | dose: 50.0 mg/kg/injection, schedule: Q01DX009 (ip), vehicle: other 112 % of control | [1] 110 % of control

C[n+]1c(-c2ccc(Cl)cc2Cl)c2cc([N+](=O)[O-])ccc2c2ccccc21
inactive: dose: 12.5 mg/kg/injection, schedule: Q01DX009 (ip), vehicle: water 113 % of control | dose: 25.0 mg/kg/injection, schedule: Q01DX009 (ip), vehicle: water 113 % of control | dose: 25.0 mg/kg/injection, schedule: Q04DX003 (ip), vehicle: water 108 % of control | dose: 50.0 mg/kg/injection, schedule: Q01DX009 (ip), vehicle: water 101 % of control | dose: 100.0 mg/kg/injection, schedule: Q04DX003 (ip), vehicle: water 95 % of control

O=C(O)C(c1ccccc1)C1CCCC1 (stereo not drawn)
inactive: dose: 50.0 mg/kg/injection, schedule: Q01DX009 (ip), vehicle: saline with Tween-80 102 % of control | [7] 105 % of control | dose: 100.0 mg/kg/injection, schedule: Q04DX003 (ip), vehicle: Klucel (hydroxypropylcellulose) (HPC) 98 % of control | [8] 100 % of control | dose: 200.0 mg/kg/injection, schedule: Q04DX003 (ip), vehicle: Klucel (hydroxypropylcellulose) (HPC) 100 % of control | dose: 400.0 mg/kg/injection, schedule: Q04DX003 (ip), vehicle: Klucel (hydroxypropylcellulose) (HPC) 98 % of control

CC1(C)N=C(N)N=C(N)N1c1cccc(S(=O)(=O)F)c1
inactive: dose: 0.8 mg/kg/injection, schedule: Q01DX009 (ip), vehicle: saline 95 % of control | dose: 4.0 mg/kg/injection, schedule: Q01DX009 (ip), vehicle: saline 95 % of control | dose: 20.0 mg/kg/injection, schedule: Q01DX009 (ip), vehicle: saline 100 % of control | [12] 100 % of control | [13] 102 % of control

CCOC(=S)c1ccc(S(=O)(=O)Nc2cccc3ccccc23)cc1
inactive: [5] 97 % of control | [6] 98 % of control | dose: 400.0 mg/kg/injection, schedule: Q01DX001 (ip), vehicle: Klucel (hydroxypropylcellulose) (HPC) 95 % of control

O=C(c1ccc(F)cc1)c1ccc2ccccc2c1
inactive: dose: 100.0 mg/kg/injection, schedule: Q01DX009 (ip), vehicle: Klucel (hydroxypropylcellulose) (HPC) 98 % of control | [2] 97 % of control | dose: 200.0 mg/kg/injection, schedule: Q01DX009 (ip), vehicle: Klucel (hydroxypropylcellulose) (HPC) 95 % of control | [3] 94 % of control | dose: 400.0 mg/kg/injection, schedule: Q01DX009 (ip), vehicle: Klucel (hydroxypropylcellulose) (HPC) 92 % of control | [4] 94 % of control
